{
  "source": "paper PMC12314110",
  "about": "“Evaluation of Potential Effects of CYP3A Inhibition and CYP3A Induction on the Pharmacokinetics of Fruquintinib in Healthy Subjects” (Clinical Pharmacology in Drug Development, 2025)",
  "key": {"[1]": {"assay": "Part B: PK of single-dose fruquintinib alone and with rifampin (CYP3A induction)", "assay_type": "in vivo, human", "conditions": "for MPR AUC0‐inf (metabolite‐to‐parent ratio) / MPR AUC0‐t (metabolite‐to‐parent ratio) / MPR Cmax (metabolite‐to‐parent ratio): M11 to fruquintinib; for MPR AUC0‐inf (metabolite‐to‐parent ratio) / MPR AUC0‐t (metabolite‐to‐parent ratio) / MPR Cmax (metabolite‐to‐parent ratio) / Cmax / half-life / AUC / Tmax: Part B; for MPR AUC0‐inf (metabolite‐to‐parent ratio) / MPR AUC0‐t (metabolite‐to‐parent ratio) / MPR Cmax (metabolite‐to‐parent ratio) / Cmax / half-life / AUC: arithmetic mean (SD); for Cmax / half-life / AUC / Tmax: metabolite M11 in plasma; for Cmax: read-out: Cmax; for Tmax: median (minimum‐maximum)", "description": "(§1) This was a single‐center, open‐label, 2‐part (Part A and Part B), 2‐period, fixed‐sequence study conducted in healthy male and female subjects. Parts A and B evaluated the effect of the CYP3A inhibitor itraconazole and the CYP3A inducer rifampin on the PK profile of fruquintinib, respectively. Each part consisted of a screening phase, a treatment phase (Period 1 and Period 2), and an end‐of‐study (EOS) phase. Screening occurred within 21 days before the first study drug administration. There was at least a 14‐day washout of fruquintinib between treatment periods. PK samples were collected before dosing and over 168 hours following the fruquintinib dose in Part A (with itraconazole) and Part B (with rifampin). Part A and Part B were enrolled independently.\nIn Part B, subjects were administered fruquintinib alone in Treatment Period 1 and in combination with rifampin in Treatment Period 2. Study Day 1 was considered as the start of Treatment Period 1, and Study Day 8 was considered as the start of Treatment Period 2. On Study Day 1, a single dose of fruquintinib 5 mg by mouth was administered under fasted conditions, and on Study Day 15, a single dose of fruquintinib 5 mg was administered by mouth under fasted conditions alongside rifampin. Starting on Study Day 8, rifampin 600 mg was dosed by mouth once daily for 14 consecutive days, 7 days before fruquintinib dosing and 6 days after fruquintinib dosing, to ensure that induction was maintained throughout the PK sampling period. Subjects therefore received rifampin from Study Day 8 to Study Day 21. Absorption of rifampin is reduced by approximately 30% when the drug is ingested with food.[13] Therefore, rifampin was administered at least 1 hour before breakfast when given alone and under fasted conditions when administered with fruquintinib. Breakfast was given at least 1 hour after the rifampin doses on Study Days 8‐14 and Study Days 16‐21. On Study Day 15, subjects received both treatments under fasted conditions, and rifampin was administered 1hour before administration of a single dose of fruquintinib 5 mg by mouth. Subjects were discharged after completion of EOS procedures on Study Day 22 or at early withdrawal.\n(§2) Blood samples for determination of fruquintinib and metabolite M11 plasma concentrations were collected before dosing and at 0.5, 1, 1.5, 2, 3, 4, 6, 8, 12, 24, 36, 48, 72, 96, 120, 144, and 168 hours after fruquintinib dosing. Plasma samples were analyzed by LabCorp Bioanalytical (Indianapolis, IN) using a validated liquid chromatography with tandem mass spectrometry assay method with an analytical range of 1.00 ng/mL (lower limit of quantitation) to 750 ng/mL (upper limit of quantitation) for both fruquintinib and M11.[6] Interrun variability was 6.3% or less and 13.8% or less for fruquintinib and M11, respectively. Quality control samples at 4 concentrations (3, 30, 300, and 600 ng/mL) were assayed along with study samples, and the bias quality control sample concentrations deviated by ±2.0% and ±2.7% from the nominal concentrations for fruquintinib and M11, respectively.\n(§3) PK parameters were determined by noncompartmental analysis and included maximum plasma concentration (Cmax); time to reach Cmax (tmax); area under the plasma concentration‐time curve (AUC) from time 0 to the time of the last measurable concentration (AUC0‐t); AUC from time 0 to infinity (AUC0‐inf); half‐life (t1/2); and the metabolite‐to‐parent ratios for Cmax, AUC0‐t, and AUC0‐inf. Apparent oral clearance and volume of distribution were also estimated for fruquintinib.\nFor Part A, the effect of itraconazole based on the PK parameters of fruquintinib was evaluated using a linear mixed‐effect model with treatment (ie, fruquintinib with itraconazole [test] and fruquintinib alone [reference]) as fixed effects and subject as a random effect. A similar inferential analysis was performed for Part B, but fruquintinib with rifampin was the test group. […]"}, "[2]": {"assay": "Part A: PK of single-dose fruquintinib alone and with itraconazole (CYP3A inhibition)", "assay_type": "in vivo, human", "conditions": "for MPR AUC0‐inf (metabolite‐to‐parent ratio) / MPR AUC0‐t (metabolite‐to‐parent ratio) / MPR Cmax (metabolite‐to‐parent ratio): M11 to fruquintinib; for MPR AUC0‐inf (metabolite‐to‐parent ratio) / MPR AUC0‐t (metabolite‐to‐parent ratio) / MPR Cmax (metabolite‐to‐parent ratio) / Cmax / Tmax / half-life / AUC: Part A; for MPR AUC0‐inf (metabolite‐to‐parent ratio) / MPR AUC0‐t (metabolite‐to‐parent ratio) / MPR Cmax (metabolite‐to‐parent ratio) / Cmax / half-life / AUC: arithmetic mean (SD); for Cmax / Tmax / half-life / AUC: both sexes, human, oral, metabolite M11 in plasma; for Cmax: read-out: Cmax; for Tmax: median (minimum‐maximum); for half-life / AUC: plasma", "description": "as §1\nIn Part A, subjects were administered fruquintinib alone in Treatment Period 1 and in combination with itraconazole in Treatment Period 2. Study Day 1 was considered the start of Treatment Period 1, and Study Day 15 was considered the start of Treatment Period 2. On Study Day 1, subjects received a single dose of fruquintinib 5 mg by mouth under fasted conditions (subjects fasted for at least 10 hours before fruquintinib dosing and 4 hours after), and on Study Day 19 subjects received a second single dose of fruquintinib 5 mg by mouth under fasted conditions, alongside itraconazole. On Study Day 15, subjects began a regimen of itraconazole 200 mg by mouth twice a day, followed by once daily dosing on Study Days 16‐25. A dose of 200 mg was selected, with a loading dose as part of a 5‐day lead‐in (twice daily for 1 day, once daily for 4 days) to achieve appropriate inhibition of CYP3A before dosing with fruquintinib.[10] Once‐daily dosing of itraconazole for an additional 5 days throughout the fruquintinib PK sampling period was continued to maintain CYP3A inhibition.[11]\nAs itraconazole oral bioavailability is maximal when the capsules are taken immediately after a full meal,[12] it was administered under fed conditions except when coadministered with fruquintinib on Study Day 19. Itraconazole doses were administered 30 minutes after the start of breakfast on Study Days 15‐18 and Study Days 20‐25. On Study Day 19, subjects received both treatments under fasted conditions, and itraconazole was administered 1 hour before administration of a single dose of fruquintinib 5 mg by mouth. Subjects were discharged after completion of EOS procedures on Study Day 26 or at early withdrawal.\nas §2\nas §3, with “fruquintinib. […]” for “fruquintinib.”"}, "[3]": {"conditions": "fruquintinib 5 mg + rifampin 600 mg, n = 13"}, "[4]": {"conditions": "fruquintinib alone 5 mg, n = 13"}, "[5]": {"conditions": "fruquintinib alone 5 mg, n = 14"}, "[6]": {"conditions": "fruquintinib 5 mg + itraconazole 200 mg, n = 13"}, "[7]": {"conditions": "fruquintinib 5 mg + itraconazole 200 mg, n = 14"}, "[8]": {"conditions": "coadministration of itraconazole"}},
  "data": [
    {"molecule": "COc1cc2ncnc(Oc3ccc4c(C(N)=O)c(C)oc4c3)c2cc1OC", "note": "[M11]", "values": [
      {"measurement": "MPR AUC0‐inf (metabolite‐to‐parent ratio)", "setting": "[1]; [3]", "value": "1.13 (0.269)"},
      {"measurement": "MPR AUC0‐t (metabolite‐to‐parent ratio)", "setting": "[1]; [3]", "value": "1.12 (0.266)"},
      {"measurement": "MPR Cmax (metabolite‐to‐parent ratio)", "setting": "[1]; [3]", "value": "0.312 (0.0975)"},
      {"measurement": "MPR AUC0‐inf (metabolite‐to‐parent ratio)", "setting": "[1]; [4]", "value": "0.379 (0.0944)"},
      {"measurement": "MPR AUC0‐t (metabolite‐to‐parent ratio)", "setting": "[1]; [4]", "value": "0.295 (0.0848)"},
      {"measurement": "MPR Cmax (metabolite‐to‐parent ratio)", "setting": "[1]; [5]", "value": "0.117 (0.0462)"},
      {"measurement": "Cmax", "setting": "[1]; both sexes, human, oral, fruquintinib 5 mg + rifampin 600 mg, n = 13", "value": 31.1, "unit": "ng/mL"},
      {"measurement": "Cmax", "setting": "[1]; both sexes, human, oral, fruquintinib alone 5 mg, n = 14", "value": 13.7, "unit": "ng/mL"},
      {"measurement": "half-life", "setting": "[1]; both sexes, human, plasma, oral, 5 mg, fruquintinib alone 5 mg, n = 13", "value": 71.8, "unit": "h"},
      {"measurement": "AUC", "setting": "[1]; both sexes, human, plasma, oral, 5 mg, fruquintinib alone 5 mg, n = 13, read-out: AUC0‐inf", "value": 2160, "unit": "ng·h/mL"},
      {"measurement": "AUC", "setting": "[1]; both sexes, human, plasma, oral, 5 mg, fruquintinib alone 5 mg, n = 13, read-out: AUC0‐t", "value": 1610, "unit": "ng·h/mL"},
      {"measurement": "Tmax", "setting": "[1]; both sexes, human, plasma, oral, 5 mg, fruquintinib alone 5 mg, n = 14, read-out: tmax", "value": 48, "unit": "h"},
      {"measurement": "half-life", "setting": "[1]; both sexes, human, plasma, oral, fruquintinib 5 mg + rifampin 600 mg, n = 13", "value": 25.1, "unit": "h"},
      {"measurement": "AUC", "setting": "[1]; both sexes, human, plasma, oral, fruquintinib 5 mg + rifampin 600 mg, n = 13, read-out: AUC0‐inf", "value": 2200, "unit": "ng·h/mL"},
      {"measurement": "AUC", "setting": "[1]; both sexes, human, plasma, oral, fruquintinib 5 mg + rifampin 600 mg, n = 13, read-out: AUC0‐t", "value": 2130, "unit": "ng·h/mL"},
      {"measurement": "Tmax", "setting": "[1]; both sexes, human, plasma, oral, fruquintinib 5 mg + rifampin 600 mg, n = 13, read-out: tmax", "value": 23, "unit": "h"},
      {"measurement": "increase of M11 Cmax", "setting": "[1]; coadministration of fruquintinib with rifampin versus fruquintinib alone", "value": 2.3, "unit": "fold"},
      {"measurement": "Tmax", "setting": "[1]; [3]", "value": "22.9 (22.9–46.9) hour"},
      {"measurement": "MPR AUC0‐inf (metabolite‐to‐parent ratio)", "setting": "[2]; [6]", "value": "0.177 (0.0371)"},
      {"measurement": "MPR AUC0‐t (metabolite‐to‐parent ratio)", "setting": "[2]; [7]", "value": "0.141 (0.0301)"},
      {"measurement": "MPR Cmax (metabolite‐to‐parent ratio)", "setting": "[2]; [7]", "value": "0.0579 (0.0155)"},
      {"measurement": "MPR AUC0‐inf (metabolite‐to‐parent ratio)", "setting": "[2]; fruquintinib alone 5 mg, n = 12", "value": "0.336 (0.0766)"},
      {"measurement": "MPR AUC0‐t (metabolite‐to‐parent ratio)", "setting": "[2]; [5]", "value": "0.291 (0.0745)"},
      {"measurement": "MPR Cmax (metabolite‐to‐parent ratio)", "setting": "[2]; [5]", "value": "0.121 (0.0358)"},
      {"measurement": "Cmax", "setting": "[2]; [7]", "value": 6.7, "unit": "ng/mL"},
      {"measurement": "Tmax", "setting": "[2]; [7]", "value": 47.9, "unit": "h"},
      {"measurement": "Cmax", "setting": "[2]; [5]", "value": 15.2, "unit": "ng/mL"},
      {"measurement": "Tmax", "setting": "[2]; [5]", "value": 72, "unit": "h"},
      {"measurement": "half-life", "setting": "[2]; 5 mg, fruquintinib alone 5 mg, n = 12", "value": 58.6, "unit": "h"},
      {"measurement": "AUC", "setting": "[2]; 5 mg, fruquintinib alone 5 mg, n = 12, read-out: AUC0‐inf", "value": 2000, "unit": "ng·h/mL"},
      {"measurement": "AUC", "setting": "[2]; 5 mg, fruquintinib alone 5 mg, n = 14, read-out: AUC0‐t", "value": 1580, "unit": "ng·h/mL"},
      {"measurement": "half-life", "setting": "[2]; [6]", "value": 70.5, "unit": "h"},
      {"measurement": "AUC", "setting": "[2]; fruquintinib 5 mg + itraconazole 200 mg, n = 13, read-out: AUC0‐inf", "value": 1100, "unit": "ng·h/mL"},
      {"measurement": "AUC", "setting": "[2]; fruquintinib 5 mg + itraconazole 200 mg, n = 14, read-out: AUC0‐t", "value": 816, "unit": "ng·h/mL"},
      {"measurement": "decrease of M11 AUC0‐inf", "setting": "[2]; [8]", "value": 44, "unit": "%"},
      {"measurement": "decrease of M11 AUC0‐t", "setting": "[2]; [8]", "value": 48, "unit": "%"},
      {"measurement": "decrease of M11 Cmax", "setting": "[2]; [8]", "value": 55, "unit": "%"}
    ]}
  ]
}
